According to ChEMBL document CHEMBL1122687, “Sulfur analogues of psychotomimetic agents. 3. Ethyl homologues of mescaline and their monothio analogues” (1984):

Species on record: Homo sapiens
Assay: Psychotomimetic potency of compound relative to that of mescaline (Human potency of mescaline = 1 MU)
Assay type: functional

Compound	Relative activity
CCOc1cc(CCN)cc(OCC)c1OC	<1
CCOc1cc(CCN)cc(SCC)c1OC	<1
CCCOc1c(OC)cc(CCN)cc1OC	10
CCCCOc1c(OC)cc(CCN)cc1OC	2
CCOc1cc(CCN)cc(OCC)c1SC	<1
CCOc1c(OC)cc(CCN)cc1SC	6
CCOc1c(OC)cc(CCN)cc1SCC	2
CCOc1cc(CCN)cc(SCC)c1OCC	<1
CCOc1c(OC)cc(CCN)cc1OC	6
CCCOc1cc(CCN)cc(OC)c1OC	<1
COc1cc(CCN)cc(OC)c1SC	12
CCOc1cc(CCN)cc(SC)c1OC	<1
CCOc1cc(CCN)cc(OCC)c1OCC	<1
CCOc1cc(CCN)cc(SC)c1OCC	2
CCSc1c(OC)cc(CCN)cc1OC	20
CCOc1cc(CCN)cc(OC)c1OCC	1.5
CCOc1cc(CCN)cc(OCC)c1SCC	<1
CCCSc1c(OC)cc(CCN)cc1OC	16
CCOc1cc(CCN)cc(OC)c1OC	1
CCOc1cc(CCN)cc(OC)c1SCC	4
CCCCSc1c(OC)cc(CCN)cc1OC	3
CCOc1cc(CCN)cc(OC)c1SC	4
CCSc1cc(CCN)cc(OC)c1OC	6

Species on record: Homo sapiens
Assay: Psychotomimetic potency of compound relative to that of mescaline(Human potency of mescaline = 1 MU)
Assay type: functional

Compound	Relative activity
COc1cc(CCN)cc(SC)c1OC	6
COc1cc(CCN)cc(OC)c1OC [MESCALINE]	1
